Measurements taken from patent publication US9149536B2, “Conjugated antimicrobial agents” (priority 2009, dated 2015).
Converted amounts (≈) assume the structure as drawn. Like-named read-outs stand apart in the source and are kept apart here.

Columns and labels:
[1] = tested on: E. coli ATCC 25922; test: MIC, double-microdilution, E. coli ATCC 25922; format: cell-based, Escherichia coli; settings: Table 4
[2] = tested on: E. coli BL21/pETSACG1; test: microbe, parasite or virus in culture; format: cell-based; settings: for MIC ratio BL21/pETSACG1 to BL21: MIC resistant strain divided by MIC background strain; for MIC BL21/pETSACG1: expressed enzyme APH(3′)-IIIa
Experimental: (§1) For this purpose, exemplary conjugates, according to some embodiments of the present invention, were tested against five isogenic E. coli strains. E. coli (pSF815) and E. coli (pET9d) are laboratory resistant strains derived by transformation of E. coli XL1 blue (background strain) with the pSF815 and pET9d plasmids, respectively. […] The last two isogenic strains used were E. coli BL21 (background strain) and E. coli (pETSACG1). […] These three enzymes are among the most prevalent modes of resistance found in aminoglycosides resistance strains.
(§2) The MIC ratios were calculated by dividing the MIC value against resistant strain to that against the respective background strain.

[3] = tested on: E. coli XL1 blue/pET9d; test: microbe, parasite or virus in culture; format: cell-based; settings: for MIC ratio XL1 blue/pET9d to XL1 blue: MIC resistant strain divided by MIC background strain; for MIC XL1 blue/pET9d: expressed enzyme APH(3′)-Ia
Experimental: as §1, §2

[4] = tested on: E. coli XL1 blue/pSF815; test: microbe, parasite or virus in culture; format: cell-based; settings: for MIC ratio XL1 blue/pSF815 to XL1 blue: MIC resistant strain divided by MIC background strain; for MIC XL1 blue/pSF815: expressed enzyme AAC(6′)-APH(2″)
Experimental: as §1, §2

[5] = tested on: E. coli BL21; test: microbe, parasite or virus in culture; format: cell-based; settings: background strain
Experimental: as §1, §2

[6] = tested on: E. coli XL1 blue; test: microbe, parasite or virus in culture; format: cell-based; settings: background strain
Experimental: as §1, §2

[7] = tested on: E. coli AG100A; test: MIC, double-microdilution, E. coli AG100A; format: cell-based, Escherichia coli; settings: Table 4; kanamycin resistant, APH(3′)-I
[8] = biological target: T1, APH(3′)-IIIa enzyme (Enterococcus faecalis, UniProt P0A3Y5); format: biochemical
T1 construct: made in house; host or cells: E. coli BL21 carrying pETSACG1 (inferred)

[9] = tested on: E. coli AG100B; test: MIC, double-microdilution, E. coli AG100B; format: cell-based, Escherichia coli; settings: Table 4; kanamycin resistant, APH(3′)-I
Excerpt: AG100B and AG100A are two kanamycin resistant Escherichia coli strains expressing APH(3′)-I aminoglycoside resistance enzyme.

[10] = tested on: MRSA ATCC 43300; test: microbe, parasite or virus in culture; format: cell-based, S. aureus; settings: Table 4
[11] = tested on: E. coli R477-100; test: MIC, double-microdilution, E. coli R477-100; format: cell-based, Escherichia coli; settings: Table 4
[12] = tested on: B. subtilis ATCC 6633; test: MIC, double-microdilution, B. subtilis ATCC 6633; format: cell-based; settings: Table 4
[13] = compound as substrate of APH(3′)-IIIa

T1 sequence (P0A3Y5 whole entry): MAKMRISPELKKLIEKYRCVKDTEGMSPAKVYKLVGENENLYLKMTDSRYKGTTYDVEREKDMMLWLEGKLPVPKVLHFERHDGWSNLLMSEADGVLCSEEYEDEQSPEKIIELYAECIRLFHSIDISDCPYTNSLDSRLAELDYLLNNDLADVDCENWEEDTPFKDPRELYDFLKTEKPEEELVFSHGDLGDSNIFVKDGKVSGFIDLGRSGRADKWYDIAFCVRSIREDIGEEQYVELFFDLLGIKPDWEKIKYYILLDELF

| Compound | MIC E. coli ATCC 25922 [1] [µg/mL] | MIC ratio BL21/pETSACG1 to BL21 [2] | MIC BL21/pETSACG1 [2] [μg/ml] | MIC against E. coli (pETSACG1) ([2]; molar expression of 0.2 μg/ml) [μM] | MIC ratio XL1 blue/pET9d to XL1 blue [3] | MIC XL1 blue/pET9d [3] [μg/ml] | MIC ratio XL1 blue/pSF815 to XL1 blue [4] | MIC XL1 blue/pSF815 [4] [μg/ml] | MIC BL21 [5] [µg/mL] | MIC XL1 blue [6] [µg/mL] | MIC E. coli AG100A [7] [µg/mL] | Km [8] [µM] | Km [8, 13] [µM] | kcat [8, 13] [s⁻¹] | MIC E. coli AG100B [9] [µg/mL] | MIC MRSA ATCC 43300 [10] [µg/mL] | MIC E. coli R477-100 [11] [µg/mL] | MIC B. subtilis ATCC 6633 [12] [µg/mL] |
| --- | --- | --- | --- | --- | --- | --- | --- | --- | --- | --- | --- | --- | --- | --- | --- | --- | --- | --- |
| NCC1OC(OC2C(C(=O)NCc3cn(CC(O)CN4CCN(c5cc6c(cc5F)c(=O)c(C(=O)O)cn6C5CC5)CC4)nn3)OC(OC3C(O)C(N)CC(N)C3OC3OC(CN)C(O)C(O)C3N)C2O)C(N)C(O)C1O (stereo not shown) [Compound 1m, N-((1-(2-hydroxy-3-(ciprofloxacin)propyl)-1H-1,2,3-triazol-4-yl)-5″-methyl)neomycin carboxamide] | 3 (≈ 2.74 µM) | 1 | 0.2 | 5.5 | 2 | 12 | 8 | 48 | 0.2 (≈ 0.182 µM) | 6 (≈ 5.47 µM) | 0.75 (≈ 0.684 µM) | 87 | 86.8 ± 8.9 | 2.5 ± 0.1 | 12 (≈ 10.9 µM) | 12 (≈ 10.9 µM) | 6 (≈ 5.47 µM) | 3 (≈ 2.74 µM) |
| NCC1OC(OC2C(C(=O)NCc3cn(Cc4cccc(CN5CCN(c6cc7c(cc6F)c(=O)c(C(=O)O)cn7C6CC6)CC5)c4)nn3)OC(OC3C(O)C(N)CC(N)C3OC3OC(CN)C(O)C(O)C3N)C2O)C(N)C(O)C1O (stereo not shown) [Compound 1o, N-((1-(3-((ciprofloxacin)methyl)benzyl)-1H-1,2,3-triazol-4-yl)-5″-methyl)neomycin carboxamide] | 6 (≈ 5.25 µM) | 1 | 0.4 | – | 1 | 6 | 4 | 24 | 0.4 (≈ 0.35 µM) | 6 (≈ 5.25 µM) | 0.75 (≈ 0.657 µM) | – | – | – | 12 (≈ 10.5 µM) | 6 (≈ 5.25 µM) | 6 (≈ 5.25 µM) | 3 (≈ 2.63 µM) |
| NCC1OC(OC2C(C(=O)NCc3cn(Cc4ccc(CN5CCN(c6cc7c(cc6F)c(=O)c(C(=O)O)cn7C6CC6)CC5)cc4)nn3)OC(OC3C(O)C(N)CC(N)C3OC3OC(CN)C(O)C(O)C3N)C2O)C(N)C(O)C1O (stereo not shown) [Compound 1p, N-((1-(4-((ciprofloxacin)methyl)benzyl)-1H-1,2,3-triazol-4-yl)-5″-methyl)neomycin carboxamide] | 6 (≈ 5.25 µM) | 1 | 0.4 | – | 1 | 6 | 1 | 6 | 0.4 (≈ 0.35 µM) | 6 (≈ 5.25 µM) | 1.5 (≈ 1.31 µM) | – | – | – | 12 (≈ 10.5 µM) | 3 (≈ 2.63 µM) | 6 (≈ 5.25 µM) | 3 (≈ 2.63 µM) |
